The target of test [1] is Prostaglandin G/H synthase 1 (Ovis aries) (UniProt P05979). Briefly: Inhibition of ovine COX1 assessed as reduction in PGF2alpha incubated for 2 mins using arachidonic acid as substrate by ELISA.
For test [2], the target named is Prostaglandin G/H synthase 2 (Homo sapiens) (UniProt P35354). Briefly: Inhibition of recombinant human COX2 assessed as reduction in PGF2alpha incubated for 2 mins using arachidonic acid as substrate by ELISA.

The structures appear in SMILES notation.

Sequence of Prostaglandin G/H synthase 2 (Homo sapiens) (P35354 whole entry, looked up): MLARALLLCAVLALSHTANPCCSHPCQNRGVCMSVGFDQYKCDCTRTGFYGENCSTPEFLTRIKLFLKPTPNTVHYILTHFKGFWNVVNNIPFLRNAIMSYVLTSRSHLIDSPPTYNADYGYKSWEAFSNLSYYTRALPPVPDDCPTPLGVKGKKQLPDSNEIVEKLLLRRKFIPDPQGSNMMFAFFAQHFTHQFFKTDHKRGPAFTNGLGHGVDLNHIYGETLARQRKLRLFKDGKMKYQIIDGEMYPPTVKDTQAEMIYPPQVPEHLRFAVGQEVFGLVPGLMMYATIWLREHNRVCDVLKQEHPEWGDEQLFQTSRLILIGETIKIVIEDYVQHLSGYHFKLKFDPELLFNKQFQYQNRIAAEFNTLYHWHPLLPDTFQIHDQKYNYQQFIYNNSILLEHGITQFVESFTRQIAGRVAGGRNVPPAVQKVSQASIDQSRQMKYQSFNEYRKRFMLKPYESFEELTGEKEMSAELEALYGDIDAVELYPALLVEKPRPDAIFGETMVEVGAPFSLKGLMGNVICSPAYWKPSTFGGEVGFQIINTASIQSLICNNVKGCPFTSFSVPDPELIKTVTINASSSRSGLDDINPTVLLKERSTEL

As for `CC(C)(C)OC(=O)N(C1=CC(=O)CCC1)c1ccc(Cl)cc1`, the IC50 in test [1] stood at 17.8 µM; in test [2], 0.915 µM.
For `CC(=O)N(C1=CC(=O)CCC1)c1ccc(Cl)cc1`, in that order: 39.9 µM and 0.367 µM.
For `O=C1C=C(Nc2ccc(Cl)cc2)CCC1`, in that order: 38 µM and 0.513 µM.

The record behind these values is BindingDB's records for doi:10.1016/j.ejmech.2019.111601 (National Institute of Pharmaceutical Education and Research …, 2019).
